Measurements reported in US20240407993A1, “PEPTIDE HAVING ANTI-AGING ACTIVITY, AND USE THEREOF” (CAREGEN CO., LTD., priority 2021, published 2024).

Assays:
Col1a1 [1] = test: Col1a1 (collagen) gene expression by RT-PCR in fibroblasts; format: cell-based, mouse; settings: NIH3T3 cells, peptide 1, 10, 50 μM, 24 hours; FIGS. 1A, 1B
Protocol: (§1) First, NIH3T3 cells (mouse fibroblast cell line) were seeded in a 6-well plate at a cell density of 3×10^5 cell/well, and then the cells were cultured in DMEM medium containing 10% fetal bovine serum (FBS) for 24 hours. The cultured cells were washed once with serum free DMEM medium, and the peptide of the present invention was mixed in 1 mL of the serum free DMEM medium at each of concentrations of 1, 10, and 50 μM, and dispensed into the cells. A positive control (PC) was treated with 5 ng/ml of TGF-β1 instead of the above peptide. The cells were cultured in a CO2 incubator at 37° C. for 24 hours.
(§2) The cultured cells were washed twice with PBS, and RNA was extracted from the cells using easy blue (iNtRON, Cat. No.: 17061, Korea). The amount of RNA extracted was quantified, 1,000 ng of RNA was added per tube, and RT reaction was performed using a kit (enzynomics, Cat. No.: PT200, Korea). RT-PCR was performed using a PCR kit (enzynomics, Cat. No.: […], Korea). The sequences of the primers of collagen, fibronectin, and elastin used in RT-PCR and the sequence of the primer of GAPDH used to compare the total RNA amount of each treatment group are shown in [Table 2].

Fibronectin = Fibronectin gene expression by RT-PCR in fibroblasts; format: cell-based, mouse; settings: NIH3T3 cells, peptide 1, 10, 50 μM, 24 hours; FIGS. 1A, 1C
Protocol: as §1, §2

AQP3 = AQP3 mRNA level by RT-PCR in keratinocytes; format: cell-based, human; settings: HaCaT cells, peptide 1, 10, 50 μM, 24 hours; FIGS. 3A, 3C
Protocol: First, HaCaT cells were seeded in a 6-well plate at a cell density of 3×10^5 cell/well, and then the cells were cultured in DMEM medium containing 10% fetal bovine serum (FBS) for 24 hours. The cultured cells were washed once with serum free DMEM medium, and then the peptide of the present invention was mixed in 1 mL of the serum free DMEM medium at each of concentrations of 1, 10, and 50 μM, and dispensed into the cells. A positive control (PC) was treated with 100 nM of EGF instead of the above peptide. The cells were cultured in a CO2 incubator at 37° C. for 24 hours.
The cultured cells were washed twice with PBS, and then RNA was extracted from the cells using easy blue (iNtRON, Cat. No.: 17061, Korea). The extracted RNA was subjected to RT reaction using a kit (enzynomics, Cat. No.: RT200, Korea). Thereafter, RT-PCR was performed using a PCR kit (enzynomics, Cat. No.: R581T, Korea). The sequences of the primers of AQP3 and SIRT1 used in RT-PCR and the sequence of the primer of GAPDH used to compare the total RNA amount of each treatment group are shown in [Table 2].

HaCaT cells = test: Intracellular ROS level after UVB irradiation (DCFH-DA, FACS) in keratinocytes; format: cell-based, human; settings: 15 mJ/cm^2 UVB, peptide 1, 10, 50 μM, 24 hours after irradiation, FIG. 4B
Protocol: The reactive oxygen species level increases when UV is irradiated. Therefore, it was confirmed whether the reactive oxygen species level decreased again and the aging phenomenon caused by oxidative stress in cells was inhibited when treated with the peptide of the present invention.
First, NIH3T3 cells and HaCaT cells were seeded in a 6-well plate at a cell density of 5×10^5 cell/well, respectively, and then the cells were cultured in DMEM medium containing 10% fetal bovine serum (FBS) for 24 hours. The cultured cells were washed once with serum free DMEM medium, and then the peptide of the present invention was mixed in 1 mL of the serum free DMEM medium at each of concentrations of 1, 10, and 50 μM, and dispensed into the cells. A positive control (PC) was treated with 2.5 mM of N-Acetylcysteine (NaC) instead of the above peptide.
The cells were cultured in a CO2 incubator at 37° C. for 1 hour. The medium of the cultured cells was transferred to a tube, 1 ml of PBS was added, and then the NIH3T3 cells were irradiated with 8 J/cm^2 of UVA and the HaCaT cells were irradiated with 15 mJ/cm^2 of UVB using a UV irradiator (VILBER LOURMAT, Cat No.: 3102-BSU, France). […] After centrifugation, the cells were washed with PBS, and a fluorescence value was measured through FACS.

Col1a1 [2] = test: Col1a1 mRNA level decreased by UV irradiation, RT-PCR in fibroblasts; format: cell-based, mouse; settings: NIH3T3 cells, 8 J/cm^2 UVA, peptide 1, 10, 50 μM, 6 hours after irradiation; FIGS. 5A, 5B
Protocol: The expression of genes related to extracellular matrix components is inhibited when irradiated with UV.
First, NIH3T3 cells were seeded in a 6-well plate at a cell density of 5×10^5 cell/well, and then the cells were cultured in DMEM medium containing 10% fetal bovine serum (FBS) for 24 hours. The cultured cells were washed once with serum free DMEM medium, and then the peptide of the present invention was mixed in 1 mL of the serum free DMEM medium at each of concentrations of 1, 10, and 50 μM, and dispensed into the cells. A positive control (PC) was treated with 50 μM of Quercetin instead of the above peptide. The cells were cultured in a CO2 incubator at 37° C. for 1 hour.
The medium of the cultured cells was transferred to a tube (e-tube), 1 ml of PBS was added, and irradiation was performed with 8 J/cm^2 of UVA using a UV irradiator (VILBER LOURMAT, Cat No.: 3102-BSU, France). After removing PBS, 900 μL of the medium transferred to the tube was dispensed, and culture was performed in a CO2 incubator at 37° C. for 6 hours. The cultured cells were washed twice with PBS, and then RNA was extracted from the cells using easy blue (iNtRON, Cat. No.: 17061, Korea). The amount of RNA extracted was quantified, 1,000 ng of RNA was added per tube, and RT reaction was performed using a kit (enzynomics, Cat. No.: RT200, Korea). […]

LCACCLHNCNECQ
expression of the collagen (Col1a1) gene (Col1a1 [1]): gradually increased as a concentration of the peptide increased
expression of the fibronectin gene (Fibronectin): gradually increased as a concentration of the peptide increased
mRNA level of AQP3 (AQP3): increased
intracellular reactive oxygen species level increased by UV irradiation (HaCaT cells): decreased
mRNA level of Col1a1 decreased by UV irradiation (Col1a1 [2]): increased again
